These results are taken from the supplement of paper PMC6723410.

Molecules are shown by their SMILES.

The test system of one experiment is GUMC-403. Briefly: viability at highest tested concentration (max response) relative to DMSO (% of DMSO control); higher = less cytotoxic. Conditions: library / dose series: MIPE library, 11-point 1:3 dilution; top concentration 23 µM; 48 h. The gist of the method: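 This value is viability at the highest tested concentration relative to vehicle control. GUMC-403 papilloma cells from a patient, grown by conditional reprogramming, were plated at 700/well in 1536-well plates and given 23 nL of compound by pin tool for 48 h. CellTiter-Glo luminescence on a ViewLux was normalised with vehicle wells at 100% and empty wells at 0%.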
Consider `COc1cccc(Nc2c(C(N)=O)cnc3c(C)cc([S+](=O)([O-])c4cccc(C(=O)N(C)C)c4)cc23)c1`, for which the viability is 97.1.

The compound `CN[C@@H]1CN(C[C@H]1OC)C2=NC3=C(C=C2)C(=O)C(=C\N3C4=NC=CS4)/C(O)=O` came in with a viability of 94.4.

The same experiment, now with this note: library / dose series: MIPE library, 11-point 1:3 dilution; top concentration 46.1 µM; 48 h.
`O=c1oc2c(O)c(O)cc3c(=O)oc4c(O)c(O)cc1c4c23` returned a viability of 143.

As for `CC(=O)OC[C@@H]1O[C@H]([C@H](OC(C)=O)[C@@H]1OC(C)=O)N2\C=C/C(=O)NC2=O`, the viability was 110. The same measure, in the same setting: with `NC(CO)C(=O)NNCc1ccc(O)c(O)c1O` (stereo not given) the figure was 96.3. The compound `COc1cc(C(=O)NS(=O)(=O)c2ccccc2C)ccc1Cc1cn(C)c2ccc(NC(=O)OC3CCCC3)cc12` had a viability of 28.5.

`CCOc1cc(CC(=O)N[C@@H](CC(C)C)c2ccccc2N2CCCCC2)ccc1C(=O)O` came in with a viability of 143. The same measure, in the same setting: the result for `NC(=O)c1cccc(-c2cccc(OC(=O)NC3CCCCC3)c2)c1` reads 104.

As for `CC1(C)NC(=O)N(c2ccc([N+](=O)[O-])c(C(F)(F)F)c2)C1=O`, the viability was found to be 75.8. The compound `CNNCc1ccc(C(=O)NC(C)C)cc1` showed a viability of 149. Still for that read-out and setting: the result for `O=NN(CCCl)C(=O)NCCCl` reads 131; that for `Clc1ccccc1C(c1ccccc1)(c1ccccc1)n1cccn1`, 105. The compound `C[N]1C=C(C2=CC=CC=C12)\C3=C(\C(=O)NC3=O)C4=C[N](C5CCN(CC5)CC6=NC=CC=C6)C7=C4C=CC=C7` gave a viability of 128. Still for that read-out and setting: the result for `C[C@]\12CCC(=O)\C=C1[C@@H]3C[C@@H]3[C@@H]4[C@@H]2CC[C@@]5(C)[C@H]4[C@@H]6C[C@@H]6[C@@]57CCC(=O)O7` reads 89.8; that for `O=C(CCCCCCC(=O)Nc1ccccc1)NO`, 99.

Regarding `CC(O)(C[S+](=O)([O-])c1ccc(F)cc1)C(=O)Nc1ccc(C#N)c(C(F)(F)F)c1` (stereo not given), the viability came out at 114. The same measure, in the same setting: the result for `CCCCN(CCCC)CCC(O)c1cc2c(Cl)cc(Cl)cc2c2cc(C(F)(F)F)ccc12` (stereo not given) reads 107.

In turn, `O=C(O)Cn1nnc(-c2cc(N3CCC(Oc4cc(F)ccc4Br)CC3)no2)n1` yielded a viability of 128. On the same count and under the same terms, with `CCOC\1=C(/C(=O)NC2=CC=C(OC3=C(Cl)C(=NC=C3)N)C(=C2)F)C(=O)N(\C=C1)C4=CC=C(F)C=C4` the figure was 77.8; with `CC(C)c1noc(N2CCC(COc3ccc(-c4ccc([S+](C)(=O)[O-])cc4)nc3)CC2)n1`, 91.9. As to `CSCC[C@@H](NC(=O)[C@@H](Cc1ccccc1)NC(=O)CNC(=O)CNC(=O)[C@@H](N)Cc1ccc(O)cc1)C(=O)O`, the viability amounted to 126.

Compound `COc1cc(NCc2ccc3nc(N)nc(N)c3c2C)cc(OC)c1OC` came in with a viability of 99.5. Still for that read-out and setting: with `C[C@@H](Cc1cc2c(c(C(N)=O)c1)N(CCCO)CC2)NCCOc1ccccc1OCC(F)(F)F` the figure was 112; with `O=c1c(-c2ccc(O)cc2)coc2cc(O[C@@H]3O[C@H](CO)[C@@H](O)[C@H](O)[C@H]3O)ccc12`, 135; with `CC1COC2=C3N1\C=C(C(O)=O)/C(=O)C3=CC(=C2N4CCN(C)CC4)F` (stereo not given), 105. The same measure, in the same setting: the result for `NC\1=N\C(=O)N(\C=C1)[C@@H]2O[C@H](CO)[C@@H](O)[C@@H]2O` reads 113; that for `Oc1ccc(C2CCN(c3ccnc4ccccc34)CC2)cc1O`, 92.8; that for `Cc1cccc(Nc2nc(-c3ccncc3)cs2)c1`, 109. On the same count and under the same terms, the result for `O=C(Nc1cccnc1)N1CCC(Cc2cccc(Oc3ccc(C(F)(F)F)cn3)c2)CC1` reads 112. The compound `C=CC(=O)Nc1cc(NC(=O)c2ccc(C)c(NC(=O)c3ccno3)c2)cc(C(F)(F)F)c1` showed a viability of 106.

For the compound `COc1ccc(-c2cc3nccn3c(Nc3ncccc3C(N)=O)n2)cc1OC`, the viability came to 107.

`CC(C)C1CCC(C(=O)N[C@H](Cc2ccccc2)C(=O)O)CC1` (stereo not given in full) gave a viability of 85.9.

`Cc1cnc(Nc2ccc(CN3CCOCC3)cc2)nc1Nc1cccc([S+](=O)([O-])NC(C)(C)C)c1` registered a viability of 31.1. The same measure, in the same setting: the result for `COc1cccc2c(NCc3ccccc3)nc(-n3c(N)nc4ccccc43)nc12` reads 131.

As for `O=C([O-])[C@H](CC(=O)N1C[C@H]2CCCC[C@H]2C1)Cc1ccccc1`, the viability turned out to be 144. Same read-out and setting: with `COc1ccc(C(=O)CC2(O)C(=O)Nc3c(Cl)ccc(Cl)c32)cc1` (stereo not given) the figure was 113. The same measure, in the same setting: with `N[C@H](CSC(c1ccccc1)(c1ccccc1)c1ccccc1)C(=O)O` the figure was 103; with `CC(C)(Sc1ccc(CCN(CCCCC2CCCCC2)C(=O)NC2CCCCC2)cc1)C(=O)O`, 109. The same measure, in the same setting: with `N[C@@H](C(=O)N[C@H]1[C@H]2SC\C(=C(/N2C1=O)C(O)=O)Cl)C3=CC=CC=C3` the figure was 122.

Compound `C[C@@H]1C/C=C/C=C/C=C/C=C/[C@@H](O[C@@H]2O[C@H](C)[C@@H](O)[C@H](N)[C@@H]2O)C[C@@H]2O[C@](O)(C[C@@H](O)C[C@@H]3O[C@H]3/C=C/C(=O)O1)C[C@H](O)[C@H]2C(=O)O` registered a viability of 104.

For the compound `OC(CN1CCC(Cc2ccc(F)cc2)CC1)c1ccc(Cl)cc1` (stereo not given), the viability stood at 103. Still for that read-out and setting: the result for `COC(=O)Nc1nc2cc(C(=O)c3ccc(F)cc3)ccc2[nH]1` reads 88. Same read-out and setting: the result for `CN[C@H](CC(C)C)C(=O)N[C@H]1C(=O)N[C@@H](CC(N)=O)C(=O)N[C@H]2C(=O)N[C@H]3C(=O)N[C@H](C(=O)N[C@H](C(=O)O)c4cc(O)cc(O)c4-c4cc3ccc4O)[C@H](O)c3ccc(c(Cl)c3)Oc3cc2cc(c3O[C@@H]2O[C@H](CO)[C@@H](O)[C@H](O)[C@H]2O[C@H]2C[C@](C)(N)[C@H](O)[C@H](C)O2)Oc2ccc(cc2Cl)[C@H]1O` reads 119. For `CN(C)CCCNC(=O)c1ccc(-c2cc(O)c3ncccc3c2)cc1`, the viability came to 120.

`C[N]1C=NC=C1[C@@](N)(C2=CC=C(Cl)C=C2)C3=CC=C4N(C)C(=O)\C=C(\C5=CC=CC(=C5)Cl)C4=C3` gave a viability of 96.3. Same read-out and setting: with `C=C(C)[C@H]1Cc2c(ccc3c2O[C@@H]2COc4cc(OC)c(OC)cc4[C@@H]2C3=O)O1` the figure was 112. Compound `Cc1c(N)nc([C@H](CC(N)=O)NC[C@@H](N)C(N)=O)nc1C(=O)N[C@H](C(=O)N[C@@H](C)[C@H](O)[C@@H](C)C(=O)N[C@@H](C(=O)NCCc1nc(-c2nc(C(=O)NCCC[S+](C)C)cs2)cs1)[C@@H](C)O)C(O[C@H]1O[C@H](CO)[C@H](O)[C@@H](O)[C@H]1O[C@H]1O[C@H](CO)[C@@H](O)[C@H](OC(N)=O)[C@@H]1O)c1c[nH]cn1` (stereo not given in full) came in with a viability of 84.5.

Consider `CC(C)c1ccc2c(c1)c(SC(C)(C)C)c(CC(C)(C)C(=O)[O-])n2Cc1ccc(Cl)cc1`, for which the viability came to 115. On the same count and under the same terms, the result for `C1CCC(C(CC2CCCCN2)C2CCCCC2)CC1` (stereo not given) reads 85.1.

As to `COC[C@H]1OC(=O)C2=COC3=C2[C@@]1(C)\C4=C(C5CCC(=O)[C@@]5(C)C[C@H]4OC(C)=O)/C3=O` (stereo not given in full), the viability came to 88.9. Still for that read-out and setting: with `CCN(c1ccccc1)c1cc(NC)[n+](C)c(C)n1` the figure was 115; with `O=C1CCC[C@@H]2[C@H]3CCC[N+]4([O-])CCC[C@@H](CN12)[C@@H]34` (stereo not given in full), 106; with `CCN(CC)CCCCNc1ncc2c(n1)N(C)C(=O)N(c1c(Cl)c(OC)cc(OC)c1Cl)C2`, 99.8. On the same count and under the same terms, with `O=C(Nc1ncc(-c2cc(C(F)F)nn2-c2c(Cl)cccc2Cl)s1)C1CC1` the figure was 84.9; with `COCCNCCCn1c(C(=O)CF)c(-c2ccc(C)cc2)c2c(N)ncnc21`, 90.7.

In turn, `CC\12CCC(=O)\C=C1CCC3C2CCC4(C)C3CCC4(O)C#C` (stereo not given) registered a viability of 103. In turn, `NC1CCC(Nc2nc(Nc3ccc(C(=O)N4CCCCC4)cc3)c3ncn(-c4cccc(F)c4)c3n2)CC1` (stereo not given) gave a viability of 86.

The compound `Cn1cnc2c(F)c(Nc3ccc(Br)cc3F)c(C(=O)NOCCO)cc21` had a viability of 89.6.

The compound `COC1(C[S+]([O-])c2ccccc2)CCN(CCc2c[nH]c3ccc(F)cc23)CC1` (stereo not given) had a viability of 101. Compound `Cc1c(C(=O)Nc2cccc(C(F)(F)F)c2)cc(-c2ccccc2)n1CCCN1CCOCC1` yielded a viability of 98.9. Still for that read-out and setting: with `Cc1nc(-c2ccc(OCC(C)C)c(C#N)c2)sc1C(=O)O` the figure was 129; with `Nc1ccc(C(=O)c2cc3c(ccc4ccccc43)[nH]2)cc1`, 109; with `C[C@]1(c2nc3c(C(N)=O)cccc3[nH]2)CCCN1`, 72.9. Regarding `C[C@H](CCC(=O)O)[C@H]1CC[C@H]2[C@@H]3[C@H](O)C[C@@H]4C[C@H](O)CC[C@]4(C)[C@H]3CC[C@]12C`, the viability was 128. Same read-out and setting: with `CCN(C)C(=O)Oc1cccc([C@H](C)N(C)C)c1` the figure was 125; with `CC(C)OC(=O)C(C(=O)OC(C)C)=C1S\C=C/S1`, 104. Same read-out and setting: with `N#C/C(C(=O)c1ccc(Cl)cc1Cl)=C1/NC(=O)c2ccc(Cl)cc2N1` the figure was 100; with `CC(=O)N1CCN(c2ccc(OC[C@H]3CO[C@](Cn4ccnc4)(c4ccc(Cl)cc4Cl)O3)cc2)CC1`, 104.

The same experiment, now with this note: library / dose series: MIPE library, 11-point 1:3 dilution; top concentration 92.2 µM; 48 h.
Compound `C=C1CCC2[C@](C)(CO)C(O)CC[C@]2(C)C1C/C=C1/C(=O)OCC1O` (stereo not given in full) displayed a viability of 106. Still for that read-out and setting: the result for `CNC[C@H](O)c1ccc(O)c(O)c1` reads 104.
